Assay results taken from PubChem BioAssay AID1259408 (Genetic Toxicology Data Bank (GENE-TOX), 2018).
Calls of active or inactive are those of the source. No rule for the calls is given here.

Tested on: GENE-TOX genotoxicity assays, various organisms and cells
Experiment: GENE-TOX mutagenicity studies
Conditions: for call: Assay Type: In vivo carcinogenicity studies
[1] = Species/Cell Type: Nonhuman, Assay Code: CCG+L, Evaluation Type: Evaluation A (Pre-1980)
[2] = Species/Cell Type: Saccharomyces cerevisiae, Assay Type: Mitotic recombination or gene conversion, Assay Code: YEC+, Evaluation Type: Evaluation A (Pre-1980)
[3] = Species/Cell Type: Salmonella typhimurium (one or more of the five standard strains: TA98, TA100, TA1535, TA1537, and TA1538), Assay Type: Histidine reverse gene mutation, Ames assay, Assay Code: SAL+, Evaluation Type: Evaluation A (Pre-1980)
[4] = Species/Cell Type: Drosophila melanogaster, Assay Type: Sex-linked recessive lethal gene mutation, Assay Code: SRLT, Evaluation Type: Evaluation A (Pre-1980)
[5] = Species/Cell Type: Mammalian polychromatic erythrocytes, Assay Type: Micronucleus test, chromosome aberrations, Assay Code: MNTT, Evaluation Type: Evaluation B (Post-1980)
[6] = Species/Cell Type: Syrian hamster embryo (SHE) cells, Assay Type: Cell transformation, clonal assay, Assay Code: CTC-, Evaluation Type: Evaluation A (Pre-1980)
[7] = Species/Cell Type: Nonhuman, Assay Type: Sister-chromatid exchange (SCE) in vivo, Assay Code: SC3T, Evaluation Type: Evaluation B (Post-1980)

[Cl][Ni][Cl]
mutagenic call (Species/Cell Type: Bacillus subtilis (H17 vs M45), Assay Type: Rec-assay, spot test, DNA effects (bacterial DNA repair), Assay Code: REW-, Evaluation Type: Evaluation A (Pre-1980)): inactive; negative | mutagenic call (Species/Cell Type: Escherichia coli WP2, Assay Type: Tryptophan reverse gene mutation, Assay Code: WP2-, Evaluation Type: Evaluation A (Pre-1980)): inactive; negative | mutagenic call (Species/Cell Type: Human lymphocytes, Assay Type: Sister-chromatid exchange (SCE) in vitro, Assay Code: SCL+, Evaluation Type: Evaluation B (Post-1980)): active; positive | mutagenic call (Species/Cell Type: Human, Assay Type: Sister-chromatid exchange (SCE) in vitro, Assay Code: SC1+, Evaluation Type: Evaluation B (Post-1980)): active; positive | mutagenic call (Species/Cell Type: Nonhuman, Assay Type: Sister-chromatid exchange (SCE) in vitro, Assay Code: SC2+, Evaluation Type: Evaluation B (Post-1980)): active; positive | mutagenic call (Species/Cell Type: Salmonella typhimurium, Serratia marcesens, Assay Type: Forward and reverse gene mutation, host-mediated assay, Assay Code: HM2T, Evaluation Type: Evaluation A (Pre-1980)): no conclusion

CCN(CCCl)CCCNc1c2ccc(Cl)cc2nc2ccc(OC)cc12
mutagenic call (Species/Cell Type: Chinese hamster lung (V79) cells, Assay Type: Forward gene mutation at the HPRT or ouabain locus, Assay Code: V79+, Evaluation Type: Evaluation A (Pre-1980)): active; positive | mutagenic call (Species/Cell Type: Chinese hamster ovary (CHO) cells, Assay Type: Forward gene mutation at the HPRT locus, Assay Code: CHO+D, Dose Response: With dose response, Evaluation Type: Evaluation A (Pre-1980)): active; positive | mutagenic call (Species/Cell Type: Drosophila melanogaster, Assay Type: Sex-linked recessive lethal gene mutation, Assay Code: SRL+, Evaluation Type: Evaluation A (Pre-1980)): active; positive | mutagenic call (Species/Cell Type: Neurospora crassa, Assay Type: Forward gene mutation, Assay Code: NEF+, Evaluation Type: Evaluation A (Pre-1980)): active; positive | mutagenic call (Species/Cell Type: Neurospora crassa, Assay Type: Reverse gene mutation, Assay Code: NER+, Evaluation Type: Evaluation A (Pre-1980)): active; positive | call [1]: active; positive | mutagenic call (Species/Cell Type: Rodents, Sex: Male, Assay Type: Dominant lethal test, Assay Code: DLTT, Evaluation Type: Evaluation A (Pre-1980)): no conclusion | mutagenic call (Species/Cell Type: Saccharomyces cerevisiae, Assay Type: Forward gene mutation, Assay Code: YEF+, Evaluation Type: Evaluation A (Pre-1980)): active; positive | mutagenic call [2]: active; positive | mutagenic call (Species/Cell Type: Saccharomyces cerevisiae, Assay Type: Mitotic recombination or gene conversion, Assay Code: YEH+, Evaluation Type: Evaluation A (Pre-1980)): active; positive | mutagenic call (Species/Cell Type: Saccharomyces cerevisiae, Assay Type: Reverse gene mutation, Assay Code: YER+, Evaluation Type: Evaluation A (Pre-1980)): active; positive | mutagenic call [3]: active; positive | mutagenic call (Species/Cell Type: Vicia faba, Assay Type: Chromosome aberrations, Assay Code: VIC+D, Dose Response: With dose response, Evaluation Type: Evaluation A (Pre-1980)): active; positive

CCCN(N=O)/C(N)=N/[N+](=O)[O-]
mutagenic call (Species/Cell Type: Arabidopsis species, Assay Type: Gene mutation, Assay Code: ARM+, Evaluation Type: Evaluation A (Pre-1980)): active; positive | mutagenic call [3]: active; positive

CC(=O)OCC1=C(C(=O)O)N2C(=O)[C@@H](NC(=O)Cc3cccs3)[C@H]2SC1
mutagenic call (Species/Cell Type: Escherichia coli polA (W3119 vs P3478), Assay Type: Rec-assay, DNA effects (bacterial DNA repair), Assay Code: RE1-, Evaluation Type: Evaluation A (Pre-1980)): inactive; negative

CS(=O)(=O)OCCNC[C@@H](O)[C@@H](O)CNCCOS(C)(=O)=O
mutagenic call (Species/Cell Type: Human lymphocytes, Assay Type: Sister-chromatid exchange (SCE) in vitro, Assay Code: SCL+D, Dose Response: With dose response, Evaluation Type: Evaluation A (Pre-1980)): active; positive | mutagenic call (Species/Cell Type: Human, Assay Type: Sister-chromatid exchange (SCE) in vitro, Assay Code: SC1+D, Dose Response: With dose response, Evaluation Type: Evaluation A (Pre-1980)): active; positive

c1cc[n+]2c(c1)-c1cccc[n+]1CC2
mutagenic call [4]: no conclusion | mutagenic call (Species/Cell Type: Rodents, Sex: Male, Assay Type: Dominant lethal test, Assay Code: DLT-, Evaluation Type: Evaluation A (Pre-1980)): inactive; negative | mutagenic call [2]: active; positive

O=C(Nc1ccc(Br)cc1)c1cc(Br)cc(Br)c1O
mutagenic call [5]: no conclusion

CC(O)CO (stereo not drawn)
mutagenic call (Species/Cell Type: Human, Assay Type: Sister-chromatid exchange (SCE) in vitro, Assay Code: SC1-, Evaluation Type: Evaluation B (Post-1980)): inactive; negative | mutagenic call [6]: inactive; negative

COCCOc1cnc(NS(=O)(=O)c2ccccc2)nc1
mutagenic call [7]: no conclusion

Cn1cnc2ncn(C)c2c1=O
mutagenic call (Species/Cell Type: Allium cepa, Assay Type: Chromosome aberrations, Assay Code: ALC-, Evaluation Type: Evaluation A (Pre-1980)): inactive; negative

CCO
mutagenic call (Species/Cell Type: Arabidopsis species, Assay Type: Gene mutation, Assay Code: ARM-, Evaluation Type: Evaluation A (Pre-1980)): inactive; negative | mutagenic call (Species/Cell Type: Aspergillus nidulans, Assay Type: Forward gene mutation, Assay Code: ASF-, Evaluation Type: Evaluation A (Pre-1980)): inactive; negative | mutagenic call (Species/Cell Type: Fischer rat embryo (RLV/1706) cells, Assay Type: Cell transformation, viral enhanced, Assay Code: CTR-, Evaluation Type: Evaluation A (Pre-1980)): inactive; negative | mutagenic call (Species/Cell Type: Human lymphocytes, Assay Type: Sister-chromatid exchange (SCE) in vitro, Assay Code: SCL+D, Dose Response: With dose response, Evaluation Type: Evaluation B (Post-1980)): active; positive | mutagenic call (Species/Cell Type: Human lymphocytes, Assay Type: Sister-chromatid exchange (SCE) in vitro, Assay Code: SCL-, Evaluation Type: Evaluation A (Pre-1980)): inactive; negative | mutagenic call (Species/Cell Type: Human, Assay Type: Sister-chromatid exchange (SCE) in vitro, Assay Code: SC1+D, Dose Response: With dose response, Evaluation Type: Evaluation B (Post-1980)): active; positive | mutagenic call (Species/Cell Type: Human, Assay Type: Sister-chromatid exchange (SCE) in vitro, Assay Code: SC1-, Evaluation Type: Evaluation A (Pre-1980)): inactive; negative | mutagenic call (Species/Cell Type: Mammalian polychromatic erythrocytes, Assay Type: Micronucleus test, chromosome aberrations, Assay Code: MNT-, Evaluation Type: Evaluation A (Pre-1980)): inactive; negative | mutagenic call (Species/Cell Type: Mouse, Sex: Male, Assay Type: Sperm morphology, Assay Code: SPI-, Evaluation Type: Evaluation A (Pre-1980)): inactive; negative | mutagenic call (Species/Cell Type: Neurospora crassa, Assay Type: Aneuploidy, chromosome aberrations, Assay Code: NEN-, Evaluation Type: Evaluation A (Pre-1980)): inactive; negative | mutagenic call (Species/Cell Type: Nonhuman, Assay Type: Chromosome aberrations in vitro, Assay Code: CY&-, Evaluation Type: Evaluation A (Pre-1980)): inactive; negative | call (Species/Cell Type: Nonhuman, Assay Code: CCG-L, Evaluation Type: Evaluation A (Pre-1980)): inactive; negative | mutagenic call (Species/Cell Type: Nonhuman, Assay Type: Sister-chromatid exchange (SCE) in vitro, Assay Code: SC2+D, Dose Response: With dose response, Evaluation Type: Evaluation B (Post-1980)): active; positive | mutagenic call (Species/Cell Type: Nonhuman, Assay Type: Sister-chromatid exchange (SCE) in vitro, Assay Code: SC2-, Evaluation Type: Evaluation A (Pre-1980)): inactive; negative | mutagenic call (Species/Cell Type: Nonhuman, Assay Type: Sister-chromatid exchange (SCE) in vivo, Assay Code: SC3+, Evaluation Type: Evaluation B (Post-1980)): active; positive | mutagenic call (Species/Cell Type: Rodents, Sex: Male, Assay Type: Dominant lethal test, Assay Code: DLT+, Evaluation Type: Evaluation A (Pre-1980)): active; positive | mutagenic call (Species/Cell Type: Salmonella typhimurium (one or more of the five standard strains: TA98, TA100, TA1535, TA1537, and TA1538), Assay Type: Histidine reverse gene mutation, Ames assay, Assay Code: SAL-, Evaluation Type: Evaluation A (Pre-1980)): inactive; negative | mutagenic call [6]: inactive; negative | mutagenic call (Species/Cell Type: Tradescantia species, Assay Type: Gene mutation, Assay Code: TRM+D, Dose Response: With dose response, Evaluation Type: Evaluation A (Pre-1980)): active; positive | mutagenic call (Species/Cell Type: Vicia faba, Assay Type: Chromosome aberrations, Assay Code: VIC+, Evaluation Type: Evaluation A (Pre-1980)): active; positive

COc1ccc(C(=O)/C(Br)=C\C(=O)O)cc1
mutagenic call (Species/Cell Type: Mammalian polychromatic erythrocytes, Assay Type: Micronucleus test, chromosome aberrations, Assay Code: MNT+, Evaluation Type: Evaluation A (Pre-1980)): active; positive | call [1]: active; positive

CN/C(=C\[N+](=O)[O-])NCCSCc1ccc(CN(C)C)o1
mutagenic call [7]: no conclusion

CC1CCCCN1N=O (stereo not drawn)
mutagenic call (Species/Cell Type: Drosophila melanogaster, Assay Type: Aneuploidy, partial sex chromosome loss, chromosome aberrations, Assay Code: DAPT, Evaluation Type: Evaluation A (Pre-1980)): no conclusion | mutagenic call (Species/Cell Type: Drosophila melanogaster, Assay Type: Aneuploidy, whole sex chromosome loss, chromosome aberrations, Assay Code: DAC-M, Evaluation Type: Evaluation A (Pre-1980)): inactive; negative | mutagenic call [4]: no conclusion | mutagenic call (Species/Cell Type: Saccharomyces cerevisiae, Assay Type: Forward gene mutation, Assay Code: YEF+*, Activation: With metabolic activation, Evaluation Type: Evaluation A (Pre-1980)): active; positive | mutagenic call (Species/Cell Type: Saccharomyces cerevisiae, Assay Type: Reverse gene mutation, Assay Code: YER+*, Activation: With metabolic activation, Evaluation Type: Evaluation A (Pre-1980)): active; positive | mutagenic call (Species/Cell Type: Salmonella typhimurium (one or more of the five standard strains: TA98, TA100, TA1535, TA1537, and TA1538), Assay Type: Histidine reverse gene mutation, Ames assay, Assay Code: SAL+*, Activation: With metabolic activation, Evaluation Type: Evaluation A (Pre-1980)): active; positive

CC1=CC(=C(c2ccc(N)c(S(=O)(=O)O)c2)c2ccc(N)c(S(=O)(=O)O)c2)C=C(S(=O)(=O)O)C1=N
mutagenic call (Species/Cell Type: Bacillus subtilis (H17 vs M45), Assay Type: Rec-assay, spot test, DNA effects (bacterial DNA repair), Assay Code: REWT, Evaluation Type: Evaluation A (Pre-1980)): no conclusion

[O][Cl+][O-]
mutagenic call [5]: no conclusion
